According to PMC6447596 (2019):

Assays:
[1] = tested on: Oligo A (DNA, G4) GGATGGGGTGGGGAGG; experiment: UV-Vis titration; conditions: 5 mM K+, 95 mM Li+ (5 K buffer); 10 mM Li cacodylate pH 7.2; 20 µM RHPS4 titrated with annealed oligo; two-state direct fit
[2] = tested on: Oligo B (DNA, G4) GGGGGATGCGGGGG; experiment: CD melting (260 nm alone, 295 nm with RHPS4); conditions: 5 mM K+, 95 mM Li+ (5 K buffer); 5 µM oligo; 2 eq RHPS4; 10 mM Li cacodylate pH 7.2
[3] = tested on: Oligo B (DNA, G4) GGGGGATGCGGGGG; experiment: UV-Vis titration; conditions: 5 mM K+, 95 mM Li+ (5 K buffer); 10 mM Li cacodylate pH 7.2; 20 µM RHPS4 titrated with annealed oligo; two-state direct fit
[4] = tested on: Oligo A (DNA, G4) GGATGGGGTGGGGAGG; experiment: CD melting (264 nm); conditions: 5 mM K+, 95 mM Li+ (5 K buffer); 5 µM oligo; 2 eq RHPS4; 10 mM Li cacodylate pH 7.2
[5] = tested on: F21D (DNA, G4) GGGTTAGGGTTAGGGTTAGGG; experiment: FRET melting; conditions: 5 mM K+, 95 mM Li+ (5 K buffer); 10 mM Li cacodylate pH 7.2; 0.2 µM F21D; sub-micromolar RHPS4; printed 'at least 15 °C'

- Ka [1]: 0.5 ± 0.3 × 10^6 /M
- melting temperature increase [2]: 14.9 °C
- Ka [3]: 0.5 ± 0.3 × 10^6 /M
- melting temperature increase [4]: 7.2 °C
- ΔTm [5]: 15 °C
Compound: Cc1cc2c3c([n+](C)c4ccc(F)cc4c3c1)-c1cc(F)ccc1N2C
